Test results reported in ChEMBL document CHEMBL1154394, “The preparation of 2,6-disubstituted pyridinyl phosphine oxides as novel anti-cancer agents” (Bioorg Med Chem Lett, 2009).
Active and inactive are the calls of the source. The calls are words filed in the database; no cut-off is given here.

Tests used:
[1] = test system: MDA-MB-231; test: Cytotoxicity against human MDA-MB-231 cells after 48 hrs by one step ATP lite assay; type: functional, cell-based
[2] = test system: SK-HEP1; test: Cytotoxicity against human SKHEP1 cells after 48 hrs by one step ATP lite assay; type: functional, cell-based
[3] = Cytotoxicity against non malignant human hematological disorder bone marrow cells after 48 hrs by one step ATP lite assay; type: cell-based; conditions: Bone marrow cell
[4] = test system: MDA-MB-231; test: Induction of apoptosis in human MDA-MB-231 cells assessed as morphological changes at 60 uM after 48 hrs; type: functional, cell-based
[5] = test system: SK-HEP1; test: Induction of apoptosis in human SKHEP1 cells assessed as morphological changes at 60 uM after 48 hrs; type: functional, cell-based
[6] = test system: MDA-MB-231; test: Growth inhibition of human MDA-MB-231 cells at 70 uM after 48 hrs by one step ATP lite assay in presence of z-VAD-fmk; type: functional, cell-based
[7] = test system: SK-HEP1; test: Growth inhibition of human SKHEP1 cells at 70 uM after 48 hrs by one step ATP lite assay in presence of z-VAD-fmk; type: functional, cell-based
[8] = test system: MDA-MB-231; test: Growth inhibition of human MDA-MB-231 cells at 100 uM after 48 hrs by one step ATP lite assay; type: functional; conditions: MDA-MB-231, 48 h, read-out: GI
[9] = test system: SK-HEP1; test: Growth inhibition of human SKHEP1 cells at 100 uM after 48 hrs by one step ATP lite assay; type: functional; design: scale not given: the % may be the effect or the level left

Structure (SMILES) | IC50 ([1]; MDA-MB-231, 48 h) [µM] | IC50 ([2]; SK-HEP1, 48 h) [µM] | IC50 [3] [µM] | Activity [4] | Activity [5] | Activity [6] | Activity [7] | inhibition of growth at 100 µM [8] [%] | Activity [9] [%] | Activity [1] | Activity [2]
COc1nc(OC)c(Br)c(P(=O)(c2ccccc2)c2ccccc2)c1Br | 47.5 | 38.5 | 54.2 | Active | Active | inactive | inactive | – | – | – | –
COc1cc(P(=O)(c2ccccc2)c2ccccc2)c(Br)c(OC)n1 | – | – | – | Active | Active | – | – | 30 | 30 | – | –
COc1cc(P(=O)(c2ccccc2)c2ccccc2)cc(OC)n1 | – | – | – | – | – | – | – | – | – | Active | Active
